These results are taken from ChEMBL document CHEMBL1127150, “Enantioselective synthesis and antielastase activity of 1,3,4-trisubstituted and 3,4-disubstituted -lactam antibiotics” (Bioorg Med Chem Lett, 1993).

The target in assay [1] is T1, Neutrophil elastase (Homo sapiens) (UniProt P08246).
T1 sequence (whole entry): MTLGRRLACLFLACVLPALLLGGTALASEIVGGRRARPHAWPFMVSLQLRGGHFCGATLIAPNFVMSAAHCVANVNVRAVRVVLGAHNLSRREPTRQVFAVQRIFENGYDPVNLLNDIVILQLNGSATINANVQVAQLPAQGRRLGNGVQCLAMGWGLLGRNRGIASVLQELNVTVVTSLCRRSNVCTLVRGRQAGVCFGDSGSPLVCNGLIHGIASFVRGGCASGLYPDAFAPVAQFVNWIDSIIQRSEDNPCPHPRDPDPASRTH
Put plainly: The compound was evaluated in vitro for the inhibition of human leukocyte elastase(HLE); Not Active.

Assay [2] concerns the target T2, Chymotrypsin-like elastase family member 2A (Sus scrofa) (UniProt P08419).
T2 sequence (whole entry): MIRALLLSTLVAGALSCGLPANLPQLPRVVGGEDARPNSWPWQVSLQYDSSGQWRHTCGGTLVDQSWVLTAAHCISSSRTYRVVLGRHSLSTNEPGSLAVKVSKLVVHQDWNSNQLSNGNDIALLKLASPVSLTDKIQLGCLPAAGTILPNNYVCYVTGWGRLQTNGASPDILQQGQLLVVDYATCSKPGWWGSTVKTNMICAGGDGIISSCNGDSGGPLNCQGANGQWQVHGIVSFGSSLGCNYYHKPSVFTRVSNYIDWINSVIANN
Put plainly: The compound was evaluated in vitro for the inhibition of Pancreatic elastase (PPE); Not Active.

The next assay has as its target T3, Neutrophil elastase (Homo sapiens, UniProt P08246).
T3 sequence (P08246 whole entry): T1 sequence (whole entry)
Put plainly: The compound was evaluated in vitro for the inhibition of human leukocyte elastase(HLE).

Active and inactive are the calls of the source. The calls are words filed in the database; no cut-off is given here.

Usually IC50 stands for the concentration that gives 50% inhibition. Low values mean greater potency, high ones weaker potency.

Consider `CO[C@@H]1C(=O)N[C@@H]1/C(C)=C/c1ccccc1`, for which the result in assay [1] and in assay [2] was inactive. In the case of `CCCC[C@@H]1C(=O)N(C(C)=O)[C@@H]1C(C)=O`, on Neutrophil elastase, the IC50 is 45 µM. As for `CO[C@@H]1C(=O)N[C@@H]1C(C)=O`, the result in assay [1] and in assay [2] was inactive. Consider `CCCC[C@@H]1C(=O)N[C@@H]1/C(C)=C/c1ccccc1` (stereo in doubt; 11), for which the result in assay [1] and in assay [2] was inactive. Take `CO[C@@H]1C(=O)N(C(C)=O)[C@@H]1c1ccccc1`: half-maximal inhibition against Neutrophil elastase (IC50) required 1.6 µM.

On to `CCCC[C@@H]1C(=O)N[C@@H]1C(C)=O`, for which the result in assay [1] and in assay [2] was inactive. As to `CO[C@@H]1C(=O)N[C@@H]1c1ccccc1`, the outcome in assay [1] and in assay [2] was inactive.

With `CO[C@H]1C(=O)N([C@@H](C2SCCCS2)C2OC(C)(C)OC2C2COC(C)(C)O2)[C@H]1/C=C/c1ccccc1` (stereo not given in full), the IC50 against Neutrophil elastase turned out to be 76 µM. `O=c1oc(Cl)c(Cl)c2ccccc12` gave an IC50 on Neutrophil elastase of 0.1 µM. The compound `CCCC[C@@H]1C(=O)N([C@@H](C2SCCCS2)C2OC(C)(C)OC2C2COC(C)(C)O2)[C@@H]1/C(C)=C/c1ccccc1` (stereo not given in full) came in with an IC50 against Neutrophil elastase of 11 µM. `CCCC[C@@H]1C(=O)N[C@@H]1/C(C)=C/c1ccccc1` (stereo in doubt; 10): the result in assay [1] and in assay [2] was inactive. As to `CO[C@@H]1C(=O)N[C@@H]1OC(C)=O`, the result in assay [1] and in assay [2] was inactive.

Compound `CCCC[C@H]1C(=O)N([C@@H](C2SCCCS2)C2OC(C)(C)OC2C2COC(C)(C)O2)[C@H]1/C(C)=C/c1ccccc1` (stereo not given in full) registered an IC50 against Neutrophil elastase of 13 µM. On the same count and under the same terms, in the case of `CCCC[C@@H]1C(=O)N(C(C)=O)[C@@H]1/C(C)=C/c1ccccc1` it was 43 µM; in that of `CO[C@@H]1C(=O)N([C@@H](C2SCCCS2)C2OC(C)(C)OC2C2COC(C)(C)O2)[C@@H]1/C(C)=C/c1ccccc1` (stereo not given in full), 18 µM. In the case of `CO[C@H]1C(=O)N[C@H]1/C=C/c1ccccc1`, the outcome in assay [1] and in assay [2] was inactive. For `CO[C@@H]1C(=O)N(C(C)=O)[C@@H]1C(C)=O`, the IC50 on Neutrophil elastase was 94 µM. Take `CO[C@H]1C(=O)N[C@H]1c1ccccc1`: the outcome in assay [1] and in assay [2] was inactive. Regarding `CO[C@@H]1C(=O)N[C@@H]1/C=C/c1ccccc1`, the outcome in assay [1] and in assay [2] was inactive. In turn, `CO[C@@H]1C(=O)N(C(C)=O)[C@@H]1/C(C)=C/c1ccccc1` displayed an IC50 on Neutrophil elastase of 1.4 µM.
